Laboratory results published in article PMC6804113, “Cyclic Peptides Acting as Allosteric Inhibitors of Human Thymidylate Synthase and Cancer Cell Growth” (Molecules, 2019).
Read-outs that look alike come from different tables or passages of the source. Starred links: 1 amine or outer side, 2 acyl side, 3 side chain; linkers in the order of their positions; H or OH if unused. Positions of bridges follow the written chain, without caps; N, C: chain ends. Non-standard residues stand in square brackets, D forms with d. Residues, ends and D or L forms follow the SMILES beside them. Cysteamide = C(CS[*:3])N[*:1]

Key:
IGROV-1 cells = assay: Cytotoxicity, crystal violet cell growth assay, peptides transfected with SAINT-PhD; assay type: cell-based, human; conditions: at 10 and 25 µM, ranking among the 10 cPs, SAINT-PhD delivery
Protocol: The IGROV-1, A2780, and A2780/CP human ovarian cancer cell lines were grown as monolayer in RPMI 1640 medium containing 10% heat-inactivated fetal bovine serum and 50 µg/mL gentamycin sulfate (Euroclone, Devon, UK). Cultures were equilibrated with humidified 5% CO2 in air at 37 °C. The cDDP-resistant variant A2780/CP cell line, derived from the parent A2780 cell line, is about 10-fold resistant to cDDP and was developed by monthly exposure to cDDP, followed by chronic exposure to stepwise increases in cDDP concentration. All studies were performed in Mycoplasma negative cells, as routinely determined with the MycoAlert Mycoplasma detection kit (Lonza, Walkersville, MD, USA).
Treatment with each peptide was performed according to the standard transfection protocol of the SAINT-PhD delivery system (Synvolux Therapeutics, Leiden, Netherlands). Complexes of peptide (µg) with SAINT-PhD (µL) were prepared at appropriate ratios corresponding to the approximate µM concentrations indicated. For each protein sample, complexes were prepared as follows: for the treatment of a 24-well plate, the appropriate amount of each peptide was diluted in HBS, then SAINT-PhD was pipetted into the solution without vortexing; then, the mixture was incubated for 5 min at room temperature, and filled up to 500 µL with serum-free medium. The culture medium was aspirated from the cells, the SAINT-PhD/peptide complex was added to the wells and incubated 4 h (37 °C, 5% CO2). Afterward, complete RPMI was added to reach the appropriate volume for maintaining the cell culture for the duration of the experiments.
Cell growth was determined using a modified crystal violet assay. On selected days, the tissue culture medium was removed, and the cell monolayer fixed with methanol and stained with 0.2% crystal violet solution in 20% methanol for at least 30 min. After being washed several times with distilled water to remove excess dye, the cells were left to dry. The incorporated dye was solubilized in acidified isopropanol (1N HCl: 2-propanol, 1:10). After appropriate dilution, absorbance was determined spectrophotometrically at 540 nm. The extracted dye was proportional to cell biomass. The percentage of cytotoxicity was calculated by comparing the absorbance of cultures exposed to the drug to unexposed (control) cultures.

[1] = molecular target: T1, recombinant human thymidylate synthase (hTS) (Homo sapiens, UniProt P04818); assay: hTS inhibition assay (spectrophotometric, absorbance at 340 nm); assay type: biochemical
T1 construct: made in house
Protocol: hTS was purified as previously reported. The enzyme solution was thawed the day of the experiment and the enzyme concentration was determined by UV−Vis spectroscopy (Varian Cary 100, Agilent, Santa Clara, CA, USA) using ε280 = 89000 M^−1 cm^−1 and Mr = 74 229. The thawed protein solution was kept constantly at 4 °C. In this condition, the enzyme was able to reproduce normal kinetic activity values (KM dUMP = 10−12 μM, KM mTHF = 4−6 μM, kcat = 0.8−0.9 s^−1). The peptide solution was mixed or vortexed in order to help solubilization; the precise concentration was determined through UV−Vis spectroscopy. A stock solution of mTHF was prepared in carbonate buffer. The stock was prepared in the range of 5 to 6 mM. A stock solution of dUMP was prepared in bidistilled water in the range of 10−12 mM. Peptide inhibitors were tested without incubation with hTS in […], at 25 °C. A 1 mL amount of assay buffer consisted of 50 mM TES, pH 7.4, containing 25 mM MgCl2, 6.5 mM HCHO, 1 mM EDTA, 75 mM β-mercaptoethanol (β-ME), 0.120 mM dUMP, and 0.060 mM mTHF. Following the addition of the enzyme (300 nM) and inhibitor mixture, the absorbance was monitored at 340 nm in a UV−Vis spectrophotometer for 3 min. In the control sample, an equal aliquot of enzyme alone was added. hTS activity inhibition percentages (I%) values were measured at 0.100−3000 µM concentration of inhibitor. […] The kinetic inhibition pattern was studied for compound 7 [12]. The inhibition values are expressed as mean ± SEM; n = 3.

[2] = disulfide bond, DMSO/TFA, H2O/DMSO/TFA 75:25:0.1
[3] = molecular target: T1, recombinant human thymidylate synthase (hTS); assay: hTS inhibition assay (spectrophotometric, absorbance at 340 nm); assay type: biochemical; remark: listed apart in the source

T1 sequence (P04818 whole entry): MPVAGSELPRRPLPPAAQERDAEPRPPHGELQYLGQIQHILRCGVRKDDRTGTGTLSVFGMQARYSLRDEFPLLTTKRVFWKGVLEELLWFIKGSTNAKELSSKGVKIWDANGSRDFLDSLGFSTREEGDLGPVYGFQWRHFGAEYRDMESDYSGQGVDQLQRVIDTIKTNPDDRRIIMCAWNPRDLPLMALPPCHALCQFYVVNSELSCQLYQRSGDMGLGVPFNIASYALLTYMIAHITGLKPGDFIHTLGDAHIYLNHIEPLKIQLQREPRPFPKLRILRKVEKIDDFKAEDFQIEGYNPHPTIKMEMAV

## CC(C)C[C@@H]1NC(=O)[C@H](CCC(N)=O)NC(=O)[C@@H]2CCCN2C(=O)[C@@H](NC(=O)[C@@H](N)CC(C)C)CSSC[C@@H](C(=O)N[C@@H](CCCNC(=N)N)C(=O)O)NC(=O)[C@H](Cc2ccc(O)cc2)NC1=O [Peptide 7, Leu-c[Cys-Pro-Gln-Leu-Tyr-Cys]-Arg] (H-LCPQLYCR-OH; disulfide 2-7)
IGROV-1 cells
  cytotoxicity (in words): intermediate cytotoxicities
[1]; at 100 µM and r.t. under stirring
  inhibition at 100 µM: 59%
[1]; at 500 µM and r.t.
  inhibition at 500 µM: 76%
[1]; kinetic inhibition pattern, Figure S1, read-out: apparent KI
  Ki: 120 to 150 µM

## CC(C)C[C@@H]1NC(=O)[C@@H](CCC(N)=O)NC(=O)[C@@H](NC(=O)[C@H](CO)NC(=O)[C@@H](N)CC(C)C)CSSC[C@@H](C(=O)O)NC(=O)[C@H](CCC(N)=O)NC(=O)[C@H](Cc2ccc(O)cc2)NC1=O [Peptide 4, Leu-Ser-c[Cys-D-Gln-Leu-Tyr-Gln-Cys]] (H-LSC[dQ]LYQC-OH; disulfide 3-8)
IGROV-1 cells
  cytotoxicity (in words): least active
[1]; at 500 µM and r.t.
  % inhibition of hTS: inactive

## CC(C)C[C@@H]1NC(=O)[C@H](CCC(N)=O)NC(=O)[C@@H]2CCCN2C(=O)[C@@H](NC(=O)[C@@H](N)CC(C)C)CSSC[C@@H](C(=O)N[C@@H](CCCNC(=N)N)C(=O)O)NC(=O)[C@H](Cc2ccc(O)cc2)NC1=O [Leu-c[Cys-Pro-Gln-Leu-Tyr-Cys-]Arg]
[2]; from H-Leu-Cys-Pro-Gln-Leu-Tyr-Cys-Arg-OH, 20-membered ring, 1.0 mM
  ring closure, yield after HPLC: 18%

## CC(C)C[C@@H]1NC(=O)[C@H](CCC(N)=O)NC(=O)[C@@H]2CCCN2C(=O)[C@@H](NC(=O)[C@@H](N)CC(C)C)CSSC[C@@H](C(=O)N[C@@H](CCC(N)=O)C(=O)N[C@@H](CCCNC(=N)N)C(=O)O)NC1=O [Leu-c[Cys-Pro-Gln-Leu-Cys-]Gln-Arg]
[2]; from H-Leu-Cys-Pro-Gln-Leu-Cys-Gln-Arg-OH, 17-membered ring, 1.04 mM
  ring closure, yield after HPLC: 25%

## CC(C)C[C@@H]1NC(=O)[C@H](CCC(N)=O)NC(=O)[C@@H]2CCCN2C(=O)[C@@H](NC(=O)[C@@H](N)CC(C)C)CSSCCNC(=O)[C@H](CCCNC(=N)N)NC(=O)[C@H](CCC(N)=O)NC(=O)[C@H](Cc2ccc(O)cc2)NC1=O [Leu-c[Cys-Pro-Gln-Leu-Tyr-Gln-Arg-CAM]]
[2]; from H-Leu-Cys-Pro-Gln-Leu-Tyr-Gln-Arg-NHCH2CH2SH, 26-membered ring, 0.93 mM
  ring closure, yield after HPLC: 10%

## CC(C)C[C@@H]1NC(=O)[C@@H](CCC(N)=O)NC(=O)[C@@H](NC(=O)[C@H](CO)NC(=O)[C@@H](N)CC(C)C)CSSC[C@@H](C(=O)N[C@@H](CCCNC(=N)N)C(=O)O)NC(=O)[C@H](Cc2ccc(O)cc2)NC1=O [Leu-Ser-c[Cys-D-Gln-Leu-Tyr-Cys-]Arg]
[2]; from H-Leu-Ser-Cys-dGln-Leu-Tyr-Cys-Arg-OH, 17-membered ring, 1.01 mM
  ring closure, yield after HPLC: 29%

## CC(C)C[C@@H]1NC(=O)[C@@H](CCC(N)=O)NC(=O)[C@@H](NC(=O)[C@H](CO)NC(=O)[C@@H](N)CC(C)C)CSSCCNC(=O)[C@H](CCCNC(=N)N)NC(=O)[C@H](CCC(N)=O)NC(=O)[C@H](Cc2ccc(O)cc2)NC1=O [Peptide 3, Leu-Ser-c[Cys-D-Gln-Leu-Tyr-Gln-Arg-CAM]] (H-LSC[dQ]LYQR-Cysteamide; disulfide 3-C)
[1]; at 500 µM and r.t.
  % inhibition of hTS: inactive

## CC(C)C[C@@H]1NC(=O)[C@H](CCC(N)=O)NC(=O)[C@@H]2CCCN2C(=O)[C@H](CO)NC(=O)[C@@H](N)CSSC[C@@H](C(=O)O)NC(=O)[C@H](CCC(N)=O)NC(=O)[C@H](Cc2ccc(O)cc2)NC1=O [c[Cys-Ser-Pro-Gln-Leu-Tyr-Gln-Cys]]
[2]; from H-Cys-Ser-Pro-Gln-Leu-Tyr-Gln-Cys-OH, 26-membered ring, 1.06 mM
  ring closure, yield after HPLC: 25%

## CC(C)C[C@@H]1NC(=O)[C@H](CCC(N)=O)NC(=O)[C@@H]2CCCN2C(=O)[C@@H](NC(=O)[C@@H](N)CC(C)C)CSSC[C@@H](C(=O)O)NC(=O)[C@H](CCC(N)=O)NC(=O)[C@H](Cc2ccc(O)cc2)NC1=O [Leu-c[Cys-Pro-Gln-Leu-Tyr-Gln-Cys-]]
[2]; from H-Leu-Cys-Pro-Gln-Leu-Tyr-Gln-Cys-OH, 23-membered ring, 1.03 mM
  ring closure, yield after HPLC: 22%

## CC(C)C[C@@H]1NC(=O)[C@@H](CCC(N)=O)NC(=O)[C@@H](NC(=O)[C@H](CO)NC(=O)[C@@H](N)CC(C)C)CSSC[C@@H](C(=O)O)NC(=O)[C@H](CCC(N)=O)NC(=O)[C@H](Cc2ccc(O)cc2)NC1=O [Leu-Ser-c[Cys-D-Gln-Leu-Tyr-Gln-Cys-]]
[2]; from H-Leu-Ser-Cys-dGln-Leu-Tyr-Gln-Cys-OH, 20-membered ring, 1.04 mM
  ring closure, yield after HPLC: 18%

## CC(C)C[C@@H]1NC(=O)[C@H](CCC(N)=O)NC(=O)[C@@H](NC(=O)[C@H](CO)NC(=O)[C@@H](N)CC(C)C)CSSCCNC(=O)[C@H](CCCNC(=N)N)NC(=O)[C@H](CCC(N)=O)NC(=O)[C@H](Cc2ccc(O)cc2)NC1=O [Leu-Ser-c[Cys-Gln-Leu-Tyr-Gln-Arg-CAM-]]
[2]; from H-Leu-Ser-Cys-Gln-Leu-Tyr-Gln-Arg-NHCH2CH2SH, 23-membered ring, 0.94 mM
  ring closure, yield after HPLC: 15%

## CC(C)C[C@@H]1NC(=O)[C@@H](CCC(N)=O)NC(=O)[C@@H](NC(=O)[C@H](CO)NC(=O)[C@@H](N)CC(C)C)CSSCCNC(=O)[C@H](CCCNC(=N)N)NC(=O)[C@H](CCC(N)=O)NC(=O)[C@H](Cc2ccc(O)cc2)NC1=O [Leu-Ser-c[Cys-D-Gln-Leu-Tyr-Gln-Arg-CAM-]]
[2]; from H-Leu-Ser-Cys-dGln-Leu-Tyr-Gln-Arg-NHCH2CH2SH, 23-membered ring, 0.94 mM
  ring closure, yield after HPLC: 13%

## CC(C)C[C@@H]1NC(=O)[C@@H](CCC(N)=O)NC(=O)[C@@H](NC(=O)[C@H](CO)NC(=O)[C@@H](N)CC(C)C)CSSC[C@@H](C(=O)N[C@@H](CCCNC(=N)N)C(=O)O)NC(=O)[C@H](Cc2ccc(O)cc2)NC1=O [Peptide 5, Leu-Ser-c[Cys-D-Gln-Leu-Tyr-Cys]-Arg] (H-LSC[dQ]LYCR-OH; disulfide 3-7; N-terminus assumed)
[1]; at 500 µM and r.t.
  % inhibition of hTS: N.I. at 500 µM and r.t. N.I. at 500 µM and 37 °C under stirring
[3]; at 500 µM and 37 °C under stirring
  % inhibition of hTS: N.I. at 500 µM and r.t. N.I. at 500 µM and 37 °C under stirring

## CC(C)C[C@@H]1NC(=O)[C@H](CCC(N)=O)NC(=O)[C@@H](NC(=O)[C@H](CO)NC(=O)[C@@H](N)CC(C)C)CSSCCNC(=O)[C@H](CCCNC(=N)N)NC(=O)[C@H](CCC(N)=O)NC(=O)[C@H](Cc2ccc(O)cc2)NC1=O [Peptide 1, Leu-Ser-c[Cys-Gln-Leu-Tyr-Gln-Arg-CAM]] (H-LSCQLYQR-Cysteamide; disulfide 3-C)
[1]; at 400 µM and r.t. under stirring
  inhibition at 400 µM: 25%
[3]; room temperature (20–22 °C) under stirring, standard error ±20% of the value
  IC50: 2120 µM

## CC(C)C[C@@H]1NC(=O)[C@H](CCC(N)=O)NC(=O)[C@H](C)NC(=O)[C@@H](NC(=O)[C@@H](N)CC(C)C)CSSC[C@@H](C(=O)O)NC(=O)[C@H](CCC(N)=O)NC(=O)[C@H](Cc2ccc(O)cc2)NC1=O [Leu-c[Cys-Ala-Gln-Leu-Tyr-Gln-Cys]]
[2]; from H-Leu-Cys-Ala-Gln-Leu-Tyr-Gln-Cys-OH, 23-membered ring, 1.06 mM
  ring closure, yield after HPLC: 30%
